The values below come from ChEMBL document CHEMBL1201862, “PubChem BioAssay data set” (2004).

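Interpolation was linear, between the two tested concentrations surrounding the appropriate level; five concentrations were tested over 48 hours in 96-well plates. The concentration for 50% growth inhibition is given as GI50.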 The source made the active and inactive calls. Rule as the data show it: active = GI50 up to about 1.1 µM and inactive = higher. *1 amine or outer side, *2 acyl side, *3 side chain or, on linkers, in order; H or OH if unused. Where a SMILES comes first, the peptide text is derived from it. [ ]: non-standard residue; d: D form. The star is where a group is joined. ξ: configuration not given here. NMeY = CN[C@@H](Cc1ccc(O)cc1)C(=O)O; Ethylenediamine = C(CN[*:2])N[*:1]; ξNMeL = CNC(CC(C)C)C(=O)O; Cbz = O=C(OCc1ccccc1)*; Lac = C[C@H](O)C(=O)O; ξA = CC(N)C(=O)O

Among the test systems are RPMI-8226; M14; SNB-75; DU-145; A549; HL-60; UO-31; MCF7; IGROV-1; MDA-MB-231; CCRF-CEM; 786-0; HCT-15; Hs-578T; KM12; Malme-3M; OVCAR-3; SK-MEL-28; NCI/ADR-RES; ACHN.
Holding throughout (assay): DTP human tumour cell line panel, 48 h

One may read the GI50 as the concentration that inhibits growth by half. `CC1CC(=O)N(N(C)C)C(C#N)(C#N)C1(C#N)C#N` (stereo not given): the GI50 in the test with RPMI-8226 is 4.14 µM (inactive); in the test on M14, 15.8 µM (inactive); in the test with SNB-75, > 35.6 µM (inactive); in the test on DU-145, 18.2 µM (inactive); with A549, 24.8 µM (inactive); with HL-60 it was 0.653 µM (active). In addition, the GI50 was 16.9 µM (inactive) in the test with UO-31; 22.4 µM (inactive) in the test with MCF7; 20.2 µM (inactive) with IGROV-1; 15.2 µM (inactive) with MDA-MB-231; 0.638 µM (active) in the test on CCRF-CEM; 12.2 µM (inactive) in the test on 786-0. Further, the 50% growth inhibitory concentration (GI50) in the test on HCT-15 is 16.3 µM; in the test with Hs-578T, 23.2 µM (inactive); in the test with KM12, > 44.1 µM (inactive); in the test with Malme-3M it was 12.2 µM (inactive); with OVCAR-3, 20.5 µM (inactive); in the test with SK-MEL-28 it was 16.1 µM (inactive). The GI50 with NCI/ADR-RES is 21.7 µM (inactive); in the test on ACHN, 15.4 µM (inactive).
`CO[C@H]1Nc2c(ccc(C)c2O)C(=O)N2C=C(/C=C/C(N)=O)C[C@@H]12` [ANTHRAMYCIN METHYL ETHER]: the GI50 with RPMI-8226 is 0.0242 µM (active); in the test with M14, 0.0143 µM (active); with SNB-75 it was 0.0228 µM (active); with DU-145, 0.0377 µM (active); in the test with A549, 0.0331 µM (active); in the test on HL-60, 0.0436 µM (active). Besides, the 50% growth inhibitory concentration (GI50) with UO-31 is 0.0175 µM (active); in the test on MCF7 it was 0.0389 µM (active); with IGROV-1, 0.0358 µM (active); in the test with MDA-MB-231, 0.0159 µM (active); in the test on CCRF-CEM it was 0.0193 µM (active); in the test on 786-0, 0.0163 µM (active). In addition, the GI50 is 0.0283 µM with HCT-15; 0.0103 µM (active) in the test on Hs-578T; 0.0303 µM (active) with KM12; 0.0261 µM (active) in the test on Malme-3M; 0.0516 µM (active) with OVCAR-3; 0.0299 µM (active) with SK-MEL-28. Also, the GI50 was 0.0315 µM (active) with NCI/ADR-RES and 0.0181 µM (active) in the test with ACHN.
As to `COC(=O)C1=C(O)C(C(=O)OC)[C@]2(O)[C@H](C(=O)OC)[C@H]1C[C@@H](c1ccc(O)cc1)[C@H]2C(=O)OC` (stereo not given in full), the GI50 with RPMI-8226 is 27.9 µM (inactive); with M14 it was 25.4 µM (inactive); in the test on SNB-75 it was 20 µM (inactive); in the test with DU-145, 23.1 µM (inactive); in the test on A549, 32.5 µM (inactive); in the test with HL-60, 27.2 µM (inactive). Besides, the GI50 in the test with UO-31 is 45 µM (inactive); with MCF7, 22.6 µM (inactive); in the test on IGROV-1 it was 41.2 µM (inactive); with MDA-MB-231 it was 23.1 µM (inactive); in the test on CCRF-CEM, 54 µM (inactive); with 786-0, 39 µM (inactive). In addition, the GI50 in the test on HCT-15 is 26.1 µM; in the test with Hs-578T it was 26.1 µM (inactive); in the test on KM12 it was 21.8 µM (inactive); with Malme-3M, 32.7 µM (inactive); with OVCAR-3 it was 11.5 µM (inactive); with SK-MEL-28 it was 41.8 µM (inactive). Also, the GI50 in the test with NCI/ADR-RES was 30.1 µM (inactive); in the test with ACHN, 36.4 µM (inactive).
Take `Cc1c(C#N)c(N)n(C2OCC(O)C(O)C2O)c(=S)c1C#N` (stereo not given): the GI50 in the test on RPMI-8226 was > 100 µM (inactive); in the test with M14, > 100 µM (inactive); in the test on SNB-75, 83.4 µM (inactive); in the test on DU-145, > 100 µM (inactive); in the test on A549, > 100 µM (inactive); in the test with HL-60 it was > 100 µM (inactive). For the same molecule, the GI50 with UO-31, in the test with MCF7, with IGROV-1, in the test on MDA-MB-231, with CCRF-CEM and with 786-0 was > 100 µM (inactive) in each case. Besides, the GI50 was above 100 µM in the test with HCT-15; 24.5 µM (inactive) in the test with Hs-578T; > 100 µM (inactive) in the test on KM12; > 100 µM (inactive) in the test with Malme-3M; > 100 µM (inactive) with OVCAR-3; > 100 µM (inactive) in the test with SK-MEL-28. Moreover, the GI50 in the test with NCI/ADR-RES and in the test on ACHN was > 100 µM (inactive) in each case.
For the molecule `Cc1cc2c3c([nH]c2c2ccnc(C)c12)CCCC3`, the GI50 in the test on RPMI-8226 is 1.84 µM (inactive); in the test with M14 it was 1.9 µM (inactive); with SNB-75, 1.87 µM (inactive); in the test with DU-145 it was 3.23 µM (inactive); in the test on A549, 2.12 µM (inactive); in the test with HL-60 it was 1.69 µM (inactive). Besides, the GI50 was 2.05 µM (inactive) in the test on UO-31; 1.43 µM (inactive) in the test on MCF7; 2.23 µM (inactive) in the test with IGROV-1; 1.69 µM (inactive) in the test on MDA-MB-231; 2.5 µM (inactive) with CCRF-CEM; 1.68 µM (inactive) with 786-0. Further, the 50% growth inhibitory concentration (GI50) in the test on HCT-15 was 1.86 µM; in the test on Hs-578T, 1.92 µM (inactive); with KM12 it was 2.7 µM (inactive); in the test on Malme-3M it was 1.29 µM (inactive); in the test on OVCAR-3, 2.14 µM (inactive); in the test with SK-MEL-28, 1.76 µM (inactive). For the same molecule, the GI50 with NCI/ADR-RES was 5.13 µM (inactive); with ACHN, 4.1 µM (inactive).
As to `COc1cc(C(c2cccc3ccccc23)N2C(=O)CCC2C(=O)O)cc(OC)c1OC` (stereo not given), the GI50 in the test on RPMI-8226, in the test on M14, in the test on SNB-75, with DU-145, in the test on A549 and in the test on HL-60 was > 100 µM (inactive) in each case. In addition, the GI50 with UO-31, in the test with MCF7, in the test with IGROV-1, with MDA-MB-231, with CCRF-CEM and in the test on 786-0 was > 100 µM (inactive) throughout. The 50% growth inhibitory concentration (GI50) was above 100 µM in the test on HCT-15; > 100 µM (inactive) in the test on Hs-578T; > 100 µM (inactive) in the test with KM12; > 100 µM (inactive) in the test on Malme-3M; > 100 µM (inactive) with OVCAR-3; > 100 µM (inactive) in the test with SK-MEL-28. The GI50 in the test on NCI/ADR-RES and in the test with ACHN was > 100 µM (inactive) each time.
As for `CSc1c(CC(=O)O)n(Cc2ccccc2)c2ccccc12`, the GI50 was 71.1 µM (inactive) in the test with RPMI-8226; > 100 µM (inactive) with M14; > 100 µM (inactive) in the test on SNB-75; > 100 µM (inactive) in the test with DU-145; 35.8 µM (inactive) with A549; > 100 µM (inactive) in the test on HL-60. Besides, the GI50 in the test with UO-31 was > 100 µM (inactive); with MCF7, > 100 µM (inactive); with IGROV-1, > 100 µM (inactive); in the test on MDA-MB-231 it was > 100 µM (inactive); in the test with CCRF-CEM it was 84.7 µM (inactive); in the test on 786-0 it was > 100 µM (inactive). The GI50 with HCT-15 was 74.5 µM; with Hs-578T, > 100 µM (inactive); with KM12, > 100 µM (inactive); in the test on Malme-3M, > 100 µM (inactive); in the test with OVCAR-3, > 100 µM (inactive); with SK-MEL-28, > 100 µM (inactive). Also, the GI50 with NCI/ADR-RES and with ACHN was > 100 µM (inactive) in each case.
Take `COc1ccc(C[C@@H](C(=O)NCCNC(=O)C(CC(C)C)N(C)C(=O)[C@@H]2CCCN2C(=O)[C@H](C)O)N(C)C(=O)[C@@H]2CCCN2C(=O)[C@H](CC(C)C)NC(=O)C(C)NC(=O)OCc2ccccc2)cc1` (stereo not given in full) (Cbz-[ξA]LP[NMeY](Me)-{Ethylenediamine-ξNMeL-Pro-Lac}): the GI50 in the test with RPMI-8226 was 33.9 µM (inactive); with M14, > 100 µM (inactive); with SNB-75 it was 89.5 µM (inactive); in the test on DU-145, > 100 µM (inactive); with A549, > 100 µM (inactive); in the test on HL-60, 38.4 µM (inactive). Moreover, the GI50 in the test with UO-31 was > 100 µM (inactive); with MCF7, 43.9 µM (inactive); with IGROV-1 it was > 100 µM (inactive); in the test with MDA-MB-231, 91.4 µM (inactive); with CCRF-CEM, 34.6 µM (inactive); with 786-0, > 100 µM (inactive). Also, the concentration for 50% growth inhibition (GI50) was 82 µM with HCT-15; 12.9 µM (inactive) with Hs-578T; > 100 µM (inactive) with KM12; > 100 µM (inactive) in the test with Malme-3M; > 100 µM (inactive) with OVCAR-3; > 100 µM (inactive) with SK-MEL-28. In addition, the GI50 in the test with NCI/ADR-RES and in the test with ACHN was > 100 µM (inactive) each time.
Regarding `COC(=O)C1C(O)C(C)C(=O)C(C)/C=C\C=C(C)C(=O)Nc2c(C)c(OC(C)=O)c3c(c2O)C(=O)C(C)=C2OCOC(=C23)C(C)=CC(C)(O)C(O)C(C)C1O` (stereo not given), the GI50 was > 100 µM (inactive) in the test on RPMI-8226; 25.4 µM (inactive) in the test on M14; 49 µM (inactive) in the test with SNB-75; 15 µM (inactive) with DU-145; 20.2 µM (inactive) in the test with A549; 18.6 µM (inactive) with HL-60. The GI50 in the test with UO-31 was 23.5 µM (inactive); with MCF7 it was 27.4 µM (inactive); in the test with IGROV-1, 21.7 µM (inactive); in the test with MDA-MB-231, > 100 µM (inactive); in the test on CCRF-CEM it was 20 µM (inactive); in the test on 786-0 it was 54.6 µM (inactive). The GI50 was 21.6 µM in the test on HCT-15; 37.4 µM (inactive) with Hs-578T; 36.6 µM (inactive) in the test on KM12; 22.2 µM (inactive) in the test on Malme-3M; 42.4 µM (inactive) in the test on OVCAR-3; 27.4 µM (inactive) with SK-MEL-28. The GI50 with NCI/ADR-RES is 46.9 µM (inactive); with ACHN, 26.2 µM (inactive).
For `COC(=O)CC1C2(C)C3=C(C)C(c4ccoc4)CC3OC2C2OC(=O)C3(C)C=CC(=O)C1(C)C23` (stereo not given), the GI50 was 0.34 µM (active) in the test on RPMI-8226; 1.32 µM (inactive) in the test on M14; 3.01 µM (inactive) with SNB-75; 0.76 µM (active) with DU-145; 2.83 µM (inactive) in the test on A549; 0.372 µM (active) in the test with HL-60. The GI50 in the test with UO-31 was 1.19 µM (inactive); with MCF7, 0.578 µM (active); in the test on IGROV-1, 0.953 µM (active); in the test with MDA-MB-231, 1.22 µM (inactive); with CCRF-CEM it was 0.317 µM (active); in the test on 786-0 it was 0.869 µM (active). Besides, the GI50 is 0.67 µM with HCT-15; 3.5 µM (inactive) in the test with Hs-578T; 1.71 µM (inactive) in the test with KM12; 1.02 µM (active) in the test with Malme-3M; 1.35 µM (inactive) in the test on OVCAR-3; 1.16 µM (inactive) with SK-MEL-28. The GI50 in the test on NCI/ADR-RES is 2.04 µM (inactive); in the test with ACHN, 1.2 µM (inactive).
